Experimental data from patent US9265253B2, “Use of macrocyclic picolinamides as fungicides” (DOW AGROSCIENCES LLC, priority 2013, dated 2016).
Where two headings read alike, the source gives them in different places.

Experiments:
Assay type in all cases: in vivo
[1] = system: Mycosphaerella graminicola; Anamorph: Septoria tritici; test: Leaf Blotch of Wheat (SEPTTR) disease control; conditions: Zymoseptoria tritici; for pest or weed control at 100 ppm: rate 100 ppm; for pest or weed control at 121.5 g/ha: rate 121.5 g/H
Method in brief: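 Preventive or curative tests: first-leaf Yuma wheat, sprayed to run-off, inoculated with S. tritici, dew chamber at 100% humidity, then greenhouse at 20° C. Severity on the first leaf is scored on a 0–100% scale and expressed as % control against untreated plants.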

Phakopsora pachyrhizi = test: Asian Soybean Rust (PHAKPA) disease control; conditions: Phakopsora pachyrhizi, topical
Method in brief: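 Compounds in acetone diluted with nine volumes water containing 0.011% Tween 20, sprayed to run-off on two-week-old Williams 82 soybean seedlings, inoculated 3 days before or 1 day after treatment. Plants held 24 h in dark dew room at 22 °C, 100% RH, then at 23 °C; disease severity scored on sprayed leaves.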

Uncinula necator = test: Grape Powdery Mildew (UNCINE) disease control; conditions: Erysiphe necator, topical, 24 h, 1 Day Protectant, read-out: Disease Control UNCINE 1 DP
Method: Technical grades of materials were dissolved in acetone, which were then mixed with nine volumes of water containing 110 ppm Triton X-100. The fungicide solutions were applied onto wheat seedlings using an automated booth sprayer to run-off. All sprayed plants were allowed to air dry prior to further handling. All fungicides were evaluated using the aforementioned method for their activity vs. all target diseases. Wheat leaf blotch and brown rust activity were also evaluated using track spray applications, in which case the fungicides were formulated as EC formulations, containing 0.1% Trycol 5941 in the spray solutions. Wheat plants (variety Yuma) were grown from seed in a greenhouse in 50% mineral soil/50% soil-less Metro mix until the first leaf was fully emerged, with 7-10 seedlings per pot. These plants were inoculated with an aqueous spore suspension of Septoria tritici either prior to or after fungicide treatments. After inoculation the plants were kept in 100% relative humidity (one day in a dark dew chamber followed by two to three days in a lighted dew chamber at 20° C.) to permit spores to germinate and infect the leaf. The plants were then transferred to a greenhouse set at 20° C. for disease to develop. When disease symptoms were fully expressed on the 1st leaves of untreated plants, infection levels were assessed on a scale of 0 to 100 percent disease severity. Percent disease control was calculated using the ratio of disease severity on treated plants relative to untreated plants. Grape seedlings (variety Carignane) were grown in soil-less Metro mix, with one plant per pot, and used in the test when approximately one month old. Plants were inoculated 24 hr after fungicide treatment by shaking spores from infected leaves over test plants. Plants were maintained in a greenhouse set at 20° C. until disease was fully developed. Fungicide formulation, application and disease assessment on the sprayed leaves followed the procedures as described in the Example A.

[2] = system: Puccinia triticina; Synonym: Puccinia recondite f. Sp. Tritici; test: Wheat Brown Rust (PUCCRT) disease control; conditions: Puccinia triticina, topical; for pest or weed control at 100 ppm: rate 100 ppm; for pest or weed control at 121.5 g/ha: rate 121.5 g/H
Method in brief: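 Brown rust on first-leaf Yuma wheat: spore inoculation before or after spray application (acetone/Triton X-100 solution, or EC with Trycol in track spray), overnight 100% RH at 22 °C, disease developed at 24 °C. Severity scored 0–100% and converted to percent control against untreated.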

[3] = 24 h, 1 Day Protectant, read-out: SEPTTR 1 DP disease control
[4] = 72 h, 3 Day Curative, read-out: SEPTTR 3 DC disease control
[5] = 24 h, 1 Day Protectant, read-out: Disease Control PHAKPA 1DP
[6] = 72 h, 3 Day Curative, read-out: Disease Control PHAKPA 3DC
[7] = 24 h, 1 Day Protectant, read-out: PUCCRT 1 DP disease control
[8] = 72 h, 3 Day Curative, read-out: PUCCRT 3 DC disease control

SMILES | pest or weed control at 100 ppm [1, 3] | pest or weed control at 121.5 g/ha [1, 3] | pest or weed control at 100 ppm [1, 4] | pest or weed control at 121.5 g/ha [1, 4] | pest or weed control at 25 ppm (Phakopsora pachyrhizi; [5]) | pest or weed control at 25 ppm (Phakopsora pachyrhizi; [6]) | pest or weed control at 100 ppm (Uncinula necator) | pest or weed control at 100 ppm [2, 7] | pest or weed control at 121.5 g/ha [2, 7] | pest or weed control at 100 ppm [2, 8] | pest or weed control at 121.5 g/ha [2, 8]
COc1ccnc(C(=O)N[C@H]2CCC[C@H](CC3CCCCC3)[C@@H](OCC(C)C)[C@H](C)OC2=O)c1OCOC(C)=O [Compound F113] | 80 to 100% | 80 to 100% | 80 to 100% | 80 to 100% | 80 to 100% | 0 to 80% | 0 to 80% | 80 to 100% | 80 to 100% | 80 to 100% | 80 to 100%
COc1ccnc(C(=O)N[C@H]2CCC[C@H](CC3CCCC3)[C@@H](OCC3CC3)[C@H](C)OC2=O)c1OCOC(C)=O [Compound F117] | 80 to 100% | 80 to 100% | 80 to 100% | 80 to 100% | 80 to 100% | 80 to 100% | 80 to 100% | 80 to 100% | 80 to 100% | 80 to 100% | 80 to 100%
COc1ccnc(C(=O)N[C@H]2CCC[C@H](CCF)[C@@H](OCC(C)C)[C@H](C)OC2=O)c1OCOC(C)=O [Compound F128, ((2-(((3S,7R,8R,9S)-7-(2-fluoroethyl)-8-isobutoxy-9-methyl-2-oxooxonan-3-yl)carbamoyl)-4-methoxypyridin-3-yl)oxy)methyl acetate] | 80 to 100% | 80 to 100% | 80 to 100% | 80 to 100% | 80 to 100% | 80 to 100% | 80 to 100% | 80 to 100% | 80 to 100% | 80 to 100% | 80 to 100%
COCC[C@H]1CCC[C@H](NC(=O)c2nccc(OC)c2OCOC(C)=O)C(=O)O[C@@H](C)[C@@H]1Oc1ccccc1 [Compound F130] | 80 to 100% | 80 to 100% | 0 to 80% | 80 to 100% | 80 to 100% | 80 to 100% | 0 to 80% | 80 to 100% | 80 to 100% | 80 to 100% | 80 to 100%
COc1ccnc(C(=O)N[C@H]2CCC[C@H](CC(F)F)[C@@H](Oc3ccccc3)[C@H](C)OC2=O)c1OCOC(C)=O [Compound F138] | 80 to 100% | 80 to 100% | 80 to 100% | 80 to 100% | 80 to 100% | 80 to 100% | 0 to 80% | 80 to 100% | 80 to 100% | 80 to 100% | 80 to 100%
COc1ccnc(C(=O)N[C@H]2CCC[C@H](Cc3ccc(F)cc3F)[C@@H](OC(=O)c3ccco3)[C@H](C)OC2=O)c1OCOC(C)=O [Compound F144] |  | 80 to 100% |  | 0 to 80% | 0 to 80% |  | 0 to 80% |  | 80 to 100% |  | 
COc1ccnc(C(=O)N[C@H]2CCC[C@H](Cc3ccc(F)cc3F)[C@@H](OCC(C)C)[C@H](C)OC2=O)c1OCOC(C)=O [Compound F145] |  | 80 to 100% |  | 80 to 100% | 80 to 100% | 0 to 80% | 80 to 100% |  | 80 to 100% |  | 80 to 100%
C=C[C@H]1CCC[C@H](NC(=O)c2nccc(OC)c2OCOC(C)=O)C(=O)O[C@@H](C)[C@@H]1Oc1ccccc1 [Compound F146] |  | 80 to 100% |  | 80 to 100% | 80 to 100% | 80 to 100% | 80 to 100% |  | 80 to 100% |  | 80 to 100%
